Patent publication US20130109682A1, “CYCLIC ETHER COMPOUNDS USEFUL AS KINASE INHIBITORS” (NOVARTIS AG, priority 2010, published 2013)

Molecular target: T1, FLT3D835Y kinase (Homo sapiens, UniProt P36888, D835Y)
T1 sequence (P36888 27-993 D835Y): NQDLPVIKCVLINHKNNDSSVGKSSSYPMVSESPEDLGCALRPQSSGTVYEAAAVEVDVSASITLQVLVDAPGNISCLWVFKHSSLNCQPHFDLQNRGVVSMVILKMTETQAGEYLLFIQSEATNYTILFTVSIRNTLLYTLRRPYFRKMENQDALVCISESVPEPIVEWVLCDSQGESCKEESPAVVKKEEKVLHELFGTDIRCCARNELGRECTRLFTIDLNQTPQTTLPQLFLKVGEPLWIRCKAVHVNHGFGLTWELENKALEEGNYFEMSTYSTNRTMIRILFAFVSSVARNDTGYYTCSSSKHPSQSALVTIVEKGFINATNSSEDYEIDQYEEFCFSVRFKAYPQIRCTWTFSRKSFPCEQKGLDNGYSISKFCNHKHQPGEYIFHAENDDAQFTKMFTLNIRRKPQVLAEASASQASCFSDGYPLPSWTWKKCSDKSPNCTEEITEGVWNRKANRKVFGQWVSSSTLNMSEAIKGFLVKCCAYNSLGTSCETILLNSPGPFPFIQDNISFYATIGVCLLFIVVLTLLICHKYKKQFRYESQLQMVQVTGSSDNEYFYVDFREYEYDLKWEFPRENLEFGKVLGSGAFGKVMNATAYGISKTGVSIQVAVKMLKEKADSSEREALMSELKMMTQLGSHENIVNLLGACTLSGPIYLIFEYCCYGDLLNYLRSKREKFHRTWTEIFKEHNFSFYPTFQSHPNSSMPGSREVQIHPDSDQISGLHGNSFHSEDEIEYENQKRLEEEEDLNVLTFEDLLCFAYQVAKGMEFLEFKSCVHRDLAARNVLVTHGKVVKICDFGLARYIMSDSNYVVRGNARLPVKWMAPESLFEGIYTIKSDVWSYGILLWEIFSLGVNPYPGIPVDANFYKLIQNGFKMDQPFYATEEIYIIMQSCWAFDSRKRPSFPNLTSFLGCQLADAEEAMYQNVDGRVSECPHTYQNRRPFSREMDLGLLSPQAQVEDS
Test: FLT3D835Y kinase inhibition assay (LanthaScreen TR-FRET)
Assay type: biochemical
Settings: read-out: FLT3 IC50
Protocol: FLT3D835Y Kinase Inhibition Assay
LanthaScreen™ is the detection of Time-Resolved Fluorescence Resonance Energy Transfer (TR-FRET) using lanthanide chelates to measure interactions between various binding partners. The application of TR-FRET to assay kinase activity was first described by Mathis (1995). A TR-FRET assay was used to measure FLT3D835Y kinase inhibitory activity. The assay panel was run on a Biomek FX liquid handling workstations. To the assay plates containing […] compound or control solutions, 4.5 μL of buffer A (50 mM TRIS-HCl pH 7.4, 2 mM DTT, 0.02% Tween 20, 0.02 mM Na3VO4, H2O nanpure) including a generic concentration of ATP (2 μM f.c.) was added per well, followed by […] of buffer B (4 uM ATP in Buffer A) including a generic concentration of polyEAY (50 nM f.c.), FLT3D835Y kinase, and divalent cations. Final concentration of kinase and cations were: [FLT3D835Y kinase]=5.7 nM, [Mg]=3 mM, [Mn]=3 mM. After 1 hour of incubation the kinase reactions were stopped by the addition of 4.5 μL of stop solution D (50 mM EDTA, 20 mM TRIS-HCl pH 7.4, 0.04% NP-40) immediately followed by 4.5 μL of buffer A (50 mM TRIS-HCl pH 7.4, 2 mM DTT, 0.02% Tween 20, 0.02 mM Na3VO4, H2O nanpure) including the Tb-labeled P-20 antibody to give a total detection volume of […]. After an incubation time of 45 min in the dark, the plates were transferred into the Pherastar fluorescence reader for counting. The effect of compound on the enzymatic activity was obtained from the linear progress curves and determined from one reading (end point measurement).

Row | Structure (SMILES) | IC50
1 | N[C@@H]1C[C@H](c2ccncc2NC(=O)c2ccc(F)c(-c3c(F)cccc3F)n2)O[C@@H]2CCC[C@]12O [Example 210, N-(4-((2R,4R,4aS,7aR)-4-amino-4a-hydroxyoctahydrocyclopenta[b]pyran-2-yl)pyridin-3-yl)-6-(2,6-difluorophenyl)-5-fluoropicolinamide] | 4200 nM
2 | C[C@H]1O[C@@H](c2ccncc2NC(=O)c2ccc(F)c(-c3c(F)cccc3F)n2)C[C@@H](N)[C@]1(C)O [Example 219, N-(4-((2R,4R,5S,6R)-4-amino-5-hydroxy-5,6-dimethyltetrahydro-2H-pyran-2-yl)pyridin-3-yl)-6-(2,6-difluorophenyl)-5-fluoropicolinamide] | 1700 nM
3 | Nc1cnc(-c2c(F)cccc2F)nc1C(=O)Nc1cnccc1[C@H]1C[C@@H](N)[C@@]2(O)CCC[C@H]2O1 [Example 213, 5-amino-N-(4-((2R,4R,4aS,7aR)-4-amino-4a-hydroxyoctahydrocyclopenta[b]pyran-2-yl)pyridin-3-yl)-2-(2,6-difluorophenyl)pyrimidine-4-carboxamide] | 3500 nM
4 | Nc1ncc(-c2ccccc2)nc1C(=O)Nc1cnccc1[C@@H]1C[C@H](O)[C@]2(O)CCC[C@@H]2O1 [Example 186, 3-amino-N-(4-((2S,4S,4aR,7aS)-4,4a-dihydroxyoctahydrocyclopenta[b]pyran-2-yl)pyridin-3-yl)-6-phenylpyrazine-2-carboxamide] | 1600 nM
5 | COc1cc(F)c(-c2nc(C(=O)Nc3cnccc3[C@H]3C[C@@H](N)[C@](C)(O)[C@@H](C)O3)ccc2F)c(F)c1 [Example 242, N-(4-((2R,4R,5S,6R)-4-amino-5-hydroxy-5,6-dimethyltetrahydro-2H-pyran-2-yl)pyridin-3-yl)-6-(2,6-difluoro-4-methoxyphenyl)-5-fluoropicolinamide] | 1200 nM
6 | O=C1CC[C@H]2O[C@@H](c3ccncc3NC(=O)c3ccc(F)c(-c4c(F)cccc4F)n3)C[C@@H](O)[C@@H]2N1 [Example 196, 6-(2,6-difluorophenyl)-5-fluoro-N-(4-((2R,4R,4aS,8aR)-4-hydroxy-6-oxooctahydro-2H-pyrano[3,2-b]pyridin-2-yl)pyridin-3-yl)picolinamide] | > 10000 nM
7 | N[C@@H]1C[C@H](c2ccncc2NC(=O)c2ccc(F)c(-c3c(F)cccc3F)n2)O[C@@H]2CCC[C@H]12 [Example 224, N-(4-((2R,4R,4aR,7aR)-4-aminooctahydrocyclopenta[b]pyran-2-yl)pyridin-3-yl)-6-(2,6-difluorophenyl)-5-fluoropicolinamide] | 1600 nM
8 | CC[C@]1(O)[C@H](O)C[C@H](c2ccncc2NC(=O)c2nc(-c3c(F)cccc3F)ncc2N)O[C@@H]1C [Example 143, 5-amino-2-(2,6-difluorophenyl)-N-(4-((2R,4R,5S,6R)-5-ethyl-4,5-dihydroxy-6-methyltetrahydro-2H-pyran-2-yl)pyridin-3-yl)pyrimidine-4-carboxamide] | > 10000 nM
9 | O=C(Nc1cnccc1[C@H]1C[C@@H](O)[C@@]2(O)CCCC[C@H]2O1)c1c[nH]cc(-c2ccccc2)c1=O [Example 178, N-(4-((2R,4R,4aS,8aR)-4,4a-dihydroxyoctahydro-2H-chromen-2-yl)pyridin-3-yl)-4-oxo-5-phenyl-1,4-dihydropyridine-3-carboxamide] | > 10000 nM

Compounds with a lower IC50, results first:

Row | IC50 | Structure (SMILES)
10 | 1100 nM | Nc1ncc(-c2ccccc2)nc1C(=O)Nc1cnccc1[C@@H]1C[C@H](O)[C@]2(O)CCCC[C@@H]2O1 [Example 176, 3-amino-N-(4-((2S,4S,4aR,8aS)-4,4a-dihydroxyoctahydro-2H-chromen-2-yl)pyridin-3-yl)-6-phenylpyrazine-2-carboxamide]
11 | 990 nM | Nc1cc(F)c(-c2c(F)cccc2F)nc1C(=O)Nc1cnccc1[C@H]1C[C@@H](N)[C@@]2(O)CCCC[C@H]2O1 [Example 238, 3-amino-N-(4-((2R,4R,4aS,8aR)-4-amino-4a-hydroxyoctahydro-2H-chromen-2-yl)pyridin-3-yl)-6-(2,6-difluorophenyl)-5-fluoropicolinamide]
12 | 830 nM | CC[C@]1(O)[C@H](N)C[C@H](c2ccncc2NC(=O)c2ccc(F)c(-c3c(F)cccc3F)n2)O[C@@H]1C [Example 232, N-(4-((2R,4R,5S,6R)-4-amino-5-ethyl-5-hydroxy-6-methyltetrahydro-2H-pyran-2-yl)pyridin-3-yl)-6-(2,6-difluorophenyl)-5-fluoropicolinamide]
13 | 270 nM | N[C@H]1C[C@@H](c2ccncc2NC(=O)c2csc(-c3c(F)cccc3F)n2)O[C@H]2CCC[C@H]21 [Example 230, N-(4-((2S,4S,4aS,7aS)-4-aminooctahydrocyclopenta[b]pyran-2-yl)pyridin-3-yl)-2-(2,6-difluorophenyl)thiazole-4-carboxamide]
14 | 23 nM | CC1(C)C[C@H](N)C[C@@H](c2ccncc2NC(=O)c2nc(-c3ccccc3)cnc2N)O1 [Example 297, 3-amino-N-(4-((2S,4R)-4-amino-6,6-dimethyltetrahydro-2H-pyran-2-yl)pyridin-3-yl)-6-phenylpyrazine-2-carboxamide]
15 | 7.4 nM | Nc1ncc(-c2ccccc2)nc1C(=O)Nc1cnccc1[C@H]1C[C@@H](O)[C@@]2(O)CCCC[C@H]2O1 [Example 173, 3-amino-N-(4-((2R,4R,4aS,8aR)-4,4a-dihydroxyoctahydro-2H-chromen-2-yl)pyridin-3-yl)-6-phenylpyrazine-2-carboxamide]
16 | 3.5 nM | Nc1ncc(-c2ccccc2)nc1C(=O)Nc1cnccc1[C@H]1C[C@@H](O)[C@@]2(O)CCC[C@H]2O1 [Example 195, 3-amino-N-(4-((2R,4R,4aS,7aR)-4,4a-dihydroxyoctahydrocyclopenta[b]pyran-2-yl)pyridin-3-yl)-6-phenylpyrazine-2-carboxamide]
17 | 0.8 nM | CC1(C)C[C@@H](N)C[C@H](c2ccncc2NC(=O)c2nc(-c3ccccc3)cnc2N)O1 [Example 296, 3-amino-N-(4-((2R,4S)-4-amino-6,6-dimethyltetrahydro-2H-pyran-2-yl)pyridin-3-yl)-6-phenylpyrazine-2-carboxamide]
